{
  "source": "patent US4261989A",
  "about": "“Geldanamycin derivatives and antitumor drug” (Kaken Chemical Co. Ltd., priority 1979, dated 1981)",
  "data": [
    {"system": "cancer cell W-2K-11", "assay": "Growth inhibition of cancer cell W-2K-11 (percent inhibition of cell multiplication, Table 2)", "type": "cell-based, mouse", "conditions": "Mus musculus; concentration 1 μg/ml; 48 hours after addition of sample; W-2K-11 cells; read-out: Percent inhibition (%)", "method": "(§1) Cancer cell W-2K-11 was obtained by transforming fibroblast C3H-2K clone derived from kidney of mouse by cancerogenic virus. The cancer cell W-2K-11 was cultured by the following method.\n(§2) (1) Preparation of culture medium\n(§3) 9.4 Gram of Eagle's MEM culture media (manufactured by Nissui Seiyaku K. K.) was dissolved in 900 ml. of distilled water and the solution was sterilized under high pressure at 120° C. for 15 minutes and cooled. 100 Ml. of calf serum and 3-5 ml. of 10% aqueous solution of sodium bicarbonate were added to the solution to adjust pH to 7.1-7.2. 10 Ml. of an aqueous solution of L-glutamine (2.92 g./100 ml.) filtered by a millipore filter was added just before the use of the solution as culture medium.\n(§4) (2) Preparation of transplanted cell solution\n(§5) The cancer cell W-2K-11 stored in a freezer at -80° C. was melted at room temperature and treated by a centrifugal separator at 670 g. for 5 minutes. The precipitated cell was dispersed in 50 ml. of the culture medium (1). The suspension was charged into Roux flask and cultured at 37° C. The multiplication of the cells was initiated and accomplished after 3 to 4 days. The cultured mixture was decanted and 10 ml. of 0.2% trypsin solution was added and the mixture was kept at room temperature for 2 to 3 minutes and the trypsin mixture was decanted and then, 50 ml. of the culture medium (1) was added to prepare a suspension of cells.\n(§6) (3) Incubation of cells and addition of sample\n(§7) 1.8 Ml. of the suspension of cells (2) was charged into each Petri dish and incubated in a carbon dioxide gas incubator (5% of CO2; 95% of air) at 37° C. Twenty four hours after the initiation of the incubation, 0.2 ml. of each ethanol solution of each sample was added, and the incubation was continued. Forty eight hours after the addition of the sample, numbers of survival cells were counted under a microscopic observation and each percent inhibition of cell multiplication was calculated. [formula]", "units": {"inhibition at 1 µg/mL": "%"}, "values": [
      {"compound": "CNC(=O)OC1C(C)=CC(C)C(O)C(OC)CC(C)CC2=C(OC)C(=O)C=C(NC(=O)C(C)=CC=CC1OC)C2=O", "note": "(centres unmarked) [Example 43, 7-OCONH-methyl Geldanamycin]", "inhibition at 1 µg/mL": 60},
      {"compound": "CCCCNC1=C2CC(C)CC(OC)C(O)C(C)/C=C(\\C)C(OC(N)=O)C(OC)/C=C\\C=C(/C)C(=O)NC(=CC1=O)C2=O", "note": "(centres unmarked) [Example 5]", "inhibition at 1 µg/mL": 85},
      {"compound": "COC1C=CC=C(C)C(=O)NC2=CC(=O)C(NCc3ccccc3)=C(CC(C)CC(OC)C(O)C(C)C=C(C)C1OC(N)=O)C2=O", "note": "(centres unmarked) [Example 23]", "inhibition at 1 µg/mL": 88},
      {"compound": "COC1=NC2=CC(=O)C(OC)=C(CC(C)CC(OC)C(O)C(C)C=C(C)C(OC(N)=O)C(OC)C=CC=C1C)C2=O", "note": "(centres unmarked) [Example 40, 1-O-methyl-Geldanamycin]", "inhibition at 1 µg/mL": 80}
    ]},
    {"system": "cancer cell W-2K-11", "assay": "Growth inhibition of cancer cell W-2K-11 (percent inhibition of cell multiplication, Table 2)", "type": "cell-based, mouse", "conditions": "Mus musculus; concentration 5 μg/ml; 48 hours after addition of sample; W-2K-11 cells; read-out: Percent inhibition (%)", "method": "as §1, §2, §3, §4, §5, §6, §7", "units": {"inhibition at 5 µg/mL": "%"}, "values": [
      {"compound": "COC1/C=C\\C=C(/C)C(=O)NC2=CC(=O)C(NCCN)=C(CC(C)CC(OC)C(O)C(C)/C=C(\\C)C1OC(N)=O)C2=O", "note": "(centres unmarked) [Example 4]", "inhibition at 5 µg/mL": 57},
      {"compound": "COC1C=CC=C(C)C(=O)NC2=CC(=O)C(NCCN3CCOCC3)=C(CC(C)CC(OC)C(O)C(C)C=C(C)C1OC(N)=O)C2=O", "note": "(centres unmarked) [Example 26]", "inhibition at 5 µg/mL": 93},
      {"compound": "COC1C=CC=C(C)C(=O)NC2=CC(=O)C(NCCN3CCCC3)=C(CC(C)CC(OC)C(O)C(C)C=C(C)C1OC(N)=O)C2=O", "note": "(centres unmarked) [Example 32]", "inhibition at 5 µg/mL": 84},
      {"compound": "COC1=C2CC(C)CC(OC)C(O)C(C)C=C(C)C(OC(N)=O)C(OC)C=CC=C(C)C(=O)NC(=C(Cl)C1=O)C2=O", "note": "(centres unmarked) [Example 39, 19-chloro-Geldanamycin]", "inhibition at 5 µg/mL": 91},
      {"compound": "CNCCNC1=C2CC(C)CC(OC)C(O)C(C)C=C(C)C(OC(N)=O)C(OC)C=CC=C(C)C(=O)NC(=CC1=O)C2=O", "note": "(centres unmarked) [Example 34]", "inhibition at 5 µg/mL": 67},
      {"compound": "COC1C=CC=C(C)C(=O)NC2=CC(=O)C(NCc3cccnc3)=C(CC(C)CC(OC)C(O)C(C)C=C(C)C1OC(N)=O)C2=O", "note": "(centres unmarked) [Example 29]", "inhibition at 5 µg/mL": 92},
      {"compound": "COC1=C2CC(C)CC(OC)C(O)C(C)C=C(C)C(OC(N)=O)C(OC)C=CC=C(C)C(=O)NC(=C(Br)C1=O)C2=O", "note": "(centres unmarked) [Example 37, 19-bromo-Geldanamycin]", "inhibition at 5 µg/mL": 84},
      {"compound": "COC1C=CC=C(C)C(=O)NC2=CC(=O)C(NCc3ccccn3)=C(CC(C)CC(OC)C(O)C(C)C=C(C)C1OC(N)=O)C2=O", "note": "(centres unmarked) [Example 28]", "inhibition at 5 µg/mL": 90}
    ]},
    {"system": "cancer cell W-2K-11", "assay": "Growth inhibition of cancer cell W-2K-11 (percent inhibition of cell multiplication, Table 2)", "type": "cell-based, mouse", "conditions": "Mus musculus; concentration 10 μg/ml; 48 hours after addition of sample; W-2K-11 cells; read-out: Percent inhibition (%)", "method": "as §1, §2, §3, §4, §5, §6, §7", "units": {"inhibition at 10 µg/mL": "%"}, "values": [
      {"compound": "COC1/C=C\\C=C(/C)C(=O)NC2=CC(=O)C(NCCCCN)=C(CC(C)CC(OC)C(O)C(C)/C=C(\\C)C1OC(N)=O)C2=O", "note": "(centres unmarked) [Example 21]", "inhibition at 10 µg/mL": 53},
      {"compound": "COC1/C=C\\C=C(/C)C(=O)NC2=CC(=O)C(NC3CCCCCC3)=C(CC(C)CC(OC)C(O)C(C)/C=C(\\C)C1OC(N)=O)C2=O", "note": "(centres unmarked) [Example 16]", "inhibition at 10 µg/mL": 98},
      {"compound": "COC1C=CC=C(C)C(=O)NC2=CC(=O)C(N3CCCC3)=C(CC(C)CC(OC)C(O)C(C)C=C(C)C1OC(N)=O)C2=O", "note": "(centres unmarked) [Example 25]", "inhibition at 10 µg/mL": 97},
      {"compound": "COC1=C2CC(C)CC(OC)C(O)C(C)C=C(C)C(OC(N)=O)C(OC)C=CC=C(C)C(=O)N(C)C(=CC1=O)C2=O", "note": "(centres unmarked) [Example 41, 21-N-methyl-Geldanamycin]", "inhibition at 10 µg/mL": 82},
      {"compound": "CCCCCCCCNC1=C2CC(C)CC(OC)C(O)C(C)/C=C(\\C)C(OC(N)=O)C(OC)/C=C\\C=C(/C)C(=O)NC(=CC1=O)C2=O", "note": "(centres unmarked) [Example 9]", "inhibition at 10 µg/mL": 67},
      {"compound": "CNC(=O)OC1C(C)=CC(C)C(O)C(OC)CC(C)CC2=C(OC)C(=O)C=C(NC(=O)C(C)=CC=CC1OC)C2=O", "note": "(centres unmarked) [Example 43, 7-OCONH-methyl Geldanamycin]", "inhibition at 10 µg/mL": 96},
      {"compound": "CCCCCCCCCCCCNC1=C2CC(C)CC(OC)C(O)C(C)/C=C(\\C)C(OC(N)=O)C(OC)/C=C\\C=C(/C)C(=O)NC(=CC1=O)C2=O", "note": "(centres unmarked) [Example 11]", "inhibition at 10 µg/mL": 79},
      {"compound": "COC1/C=C\\C=C(/C)C(=O)NC2=CC(=O)C(NCCOCCO)=C(CC(C)CC(OC)C(O)C(C)/C=C(\\C)C1OC(N)=O)C2=O", "note": "(centres unmarked) [Example 19]", "inhibition at 10 µg/mL": 88},
      {"compound": "COC1=NC2=CC(=O)C(OC)=C(CC(C)CC(OC)C(O)C(C)C=C(C)C(OC(N)=O)C(OC)C=CC=C1C)C2=O", "note": "(centres unmarked) [Example 40, 1-O-methyl-Geldanamycin]", "inhibition at 10 µg/mL": 95}
    ]},
    {"system": "cancer cell W-2K-11", "assay": "Growth inhibition of cancer cell W-2K-11 (percent inhibition of cell multiplication, Table 2)", "type": "cell-based, mouse", "conditions": "concentration 1 μg/ml; 48 hours after addition of sample; W-2K-11 cells", "method": "as §1, §2, §3, §4, §5, §6, §7", "units": {"Percent inhibition (%)": "%"}, "values": [
      {"compound": "17-demethoxy-17,19-bisdimethylamino-Geldenamycin [Example 35]", "Percent inhibition (%)": 92}
    ]},
    {"system": "cancer cell W-2K-11", "assay": "Growth inhibition of cancer cell W-2K-11 (percent inhibition of cell multiplication, Table 2)", "type": "cell-based, mouse", "conditions": "concentration 5 μg/ml; 48 hours after addition of sample; W-2K-11 cells", "method": "as §1, §2, §3, §4, §5, §6, §7", "units": {"Percent inhibition (%)": "%"}, "values": [
      {"compound": "CO[C@H]1/C=C\\C=C(/C)C(=O)NC2=CC(=O)C(NCCN3CCCCC3)=C(C[C@@H](C)C[C@H](OC)[C@H](O)[C@@H](C)/C=C(\\C)[C@@H]1OC(N)=O)C2=O", "note": "[Example 27]", "Percent inhibition (%)": 57}
    ]},
    {"system": "cancer cell W-2K-11", "assay": "Growth inhibition of cancer cell W-2K-11 (percent inhibition of cell multiplication, Table 2)", "type": "cell-based, mouse", "conditions": "concentration 10 μg/ml; 48 hours after addition of sample; W-2K-11 cells", "method": "as §1, §2, §3, §4, §5, §6, §7", "units": {"Percent inhibition (%)": "%"}, "values": [
      {"compound": "COC1C=CC=C(C)C(=O)NC2=CC(=O)C(NCC34CC5CC(CC(C5)C3)C4)=C(CC(C)CC(OC)C(O)C(C)C=C(C)C1OC(N)=O)C2=O", "note": "(centres unmarked) [Example 17]", "Percent inhibition (%)": 98},
      {"compound": "17-demethoxy-17,19-bisdimethylamino-Geldenamycin [Example 35]", "Percent inhibition (%)": 97}
    ]},
    {"system": "not listed separately", "assay": "Acute toxicity, LD50 to mouse by intraperitoneal injection (Table 3)", "conditions": "in vivo, ip", "method": "LD50 of each sample to mouse was measured by intraperitoneal injection of each sample.", "units": {"LD50": "mg/kg"}, "values": [
      {"compound": "COC1=C2CC(C)CC(OC)C(O)C(C)C=C(C)C(OC(N)=O)C(OC)C=CC=C(C)C(=O)N(C)C(=CC1=O)C2=O", "note": "(centres unmarked) [Example 41, 21-N-methyl-Geldanamycin]", "LD50": 120}
    ]}
  ]
}
